Assay results published in patent publication US20260115209A1, “COMBINATION THERAPY INCLUDING COX-2 INHIBITOR FOR THE TREATMENT OF CANCER” (THE REGENTS OF THE UNIVERSITY OF CALIFORNIA, priority 2022, published 2026).

Tested on: SRC
Test: High throughput kinase-activity mapping (HT-KAM) of treated cell extracts
Type: cell-based
Details: WiDr cells treated 8 hours with vemurafenib ± gefitinib or cetuximab; FIG. 1B
Protocol: For samples to be analyzed with the HT-KAM platform, cells at ˜85% confluency were washed three times with cold PBS and lysed with freshly prepared 1× cell lysis buffer (1 ml per 2.5×10^6 cells) (lOX Cell Lysis Buffer, Cell Signaling; cat. #9803) complemented with 1× of Halt Protease & Phosphatase (100×, ThermoScientific; cat. #1861281). Cell lysates were collected and spun down at 14,000 rpm for 15 min at 4° C. and supernatants stored at −80° C. For samples to be analyzed by western blot, cell lysates were prepared with RIPA lysis buffer (150 mM NaCl, 0.1% SDS, 1% Nonidet P40, 1% sodium deoxycholate and 10 mM sodium phosphate, pH 7.2) supplemented with protease and phosphatase inhibitors. After clearing by centrifugation at 12,000 rpm for 10 minutes at 4° C., the lysates were analyzed as described in the respective experiments.
This high throughput kinase-activity mapping (HT-KAM) platform uses arrays of peptides that act as sensors of phosphorylation activity (7). The phospho-catalytic signature of samples is established from simultaneously occurring ATP-consumption tests measured in the presence of individual peptides that are experimentally isolated from each other. […] Luminescence is acquired using the Synergy 2 Multi-Mode Microplate Reader from BioTek. Luminescence data are inversely correlated with the amount of kinase activity. […]

In the case of `CCCS(=O)(=O)Nc1ccc(F)c(C(=O)c2c[nH]c3ncc(-c4ccc(Cl)cc4)cc23)c1F` [vemurafenib, N-[3-[5-(4-chlorophenyl)-1H-pyrrolo[2,3-b]pyridine-3-carbonyl]-2,4-difluorophenyl]propane-1-sulfonamide], the SRC kinase activity is reported as “most significantly increased kinase activity”.
